The numbers were not newly measured in publication PMC8176454, “Synthesis and Assessment of Novel Probes for Imaging Tau Pathology in Transgenic Mouse and Rat Models” (ACS Chemical Neuroscience, 2021), which cites them from elsewhere.

The test system of data set [1] is tau aggregates in P301S tau and GSK3-β X P301L tau (biGT) mice. Further details: method as in PMID 26912432. The following applies: cited from earlier work.
Data set [2] concerns tau pathology in PS19 tau transgenic mice. The arrangement: method as in PMID 24050400. The following applies: cited from earlier work.

Regarding `CNc1ccc(-c2ccc3cc(OCC(O)C[18F])ccc3n2)cc1` (centres unmarked) [[^18F]THK5117], the “Binding to tau aggregates in two transgenic mouse models” value in data set [1] is “bound to tau aggregates”.
On to `[11CH3]Nc1ccc(/C=C/C=C/c2nc3ccc(O)cc3s2)cn1` [[^11C]PBB3], for which the “Binding to tau pathology in PS19 tau transgenic mice” value in data set [2] is given as “bind to tau pathology”.
